Experimental data: US6573063B2, “Methods and systems for assessing biological materials using optical and spectroscopic detection techniques” (Cytoscan Sciences, LLC, priority 1995, dated 2003)

Legend:
[1] = system: brain tumor and normal tissue; assay: Optical imaging of brain tumor through the intact cranium after intravenous dye injection
hippocampal slices = assay: Spontaneous interictal-like bursts in hippocampal slices after additions to the bathing medium; assay type: cell-based, rat; settings: 4 slices
Procedure: (§1) Sprague-Dawley rats (male and female; 25 to 35 days old) were prepared as described in Aghajanian, A. K. and Rasmussen, K., Synapse 31:331, 1989; and Buckmaster, P. S., Strowbridge, B. W., Schwartzdroin, P. A., J. Neurophysiol. 70:1281, 1993. In most hippocampal slice experiments, simultaneous extracellular field electrode recordings were obtained from CA1 and CA3 areas. For stimulation-evoked afterdischarge (13 slices, 8 animals), the concentration of Mg^2+ in the bathing medium was reduced to 0.9 mM. A bipolar tungsten stimulating electrode was placed on the Schaffer collaterals to evoke synaptically driven field responses in CA1; stimuli consisted to 100 to 300-μs-duration pulses at an intensity of four times population-spike threshold. After discharges were evoked by a 2-s train of such stimuli delivered at 60 Hz. […] In all treatments, perfusion with furosemide-containing medium was begun after a consistent level of bursting had been established.

[2] = system: hippocampal tissue slice (CA1, Schaffer collateral stimulation); assay: Stimulation-evoked afterdischarge in acute hippocampal slice: extracellular field recording and imaging of intrinsic optical signals; assay type: cell-based, rat
Procedure: as §1
For imaging of intrinsic optical signals, the tissue was illuminated with a beam of white light (tungsten filament light and lens system; Dedotec USA, Lodi, N.J.) directed through the microscope condenser. The light was controlled and regulated (power supply: Lambda Electronics, Melville, N.Y.) to minimize fluctuations and filtered (695 nm long-pass) so that the slice was transilluminated with long wavelengths (red). Image frames were acquired with a charge-coupled device camera (Dage-MTI) at 30 Hz and were digitized at 8 bits with a spatial resolution of 512 by 480 pixels by means of an Imaging Technology Series 151 imaging system; gains and offsets of the camera-control box and the analog-to-digital board were adjusted to optimize the sensitivity of the system. Imaging hardware was controlled by a 486-PC-compatible computer running software written by D. Hochman and developed with commercially available software tools (Microsoft's C/C++ Compiler and Imaging Technology's ITEX library). To increase signal-to-noise ratio, an averaged image was composed from 16 individual image-frames, integrated over 0.5 s and averaged together. An experimental series typically involved the continuous acquisition of a series of averaged images over a several minute time period; at least 10 of these averaged images were acquired as control images before stimulation. Pseudocolored images were calculated by subtracting the first control image from subsequently acquired images and assigned a color lookup table to the pixel values. For these images, usually a linear low-pass filter was used to remove high-frequency noise and a linear-histogram stretch was used to map the pixel values over the dynamic range of the system. All operations on these images were linear so that quantitative information was preserved.

[3] = 20 minutes of perfusion with medium containing 2.5 mM furosemide
[4] = following treatment with furosemide (FIG. 3E)

CC1(C)C(/C=C/C=C/C=C/C=C2\N(CCCCS(=O)(=O)O)c3ccc4ccccc4c3C2(C)C)=[N+](CCCCS(=O)(=O)[O-])c2ccc3ccccc3c21 [indocyanine green]
dye distribution in normal and tumor tissue ([1]; five seconds after dye injection): profuse through both normal and tumor tissue | dye in normal tissue ([1]; one minute after dye injection): cleared the dye | dye in tumor region ([1]; one minute after dye injection): still retained

CN1CCc2cc3c(cc2[C@H]1[C@@H]1OC(=O)c2c1ccc1c2OCO1)OCO3 [bicuculine]
spontaneous interictal-like bursts, average (hippocampal slices; 50 to 100 bicuculine in bathing medium, 3 animals): 14 bursts/min

Nc1ccncc1 [4-AP]
spontaneous interictal-like bursts, average (hippocampal slices; 200 to 300 μM 4-AP in bathing medium, 2 animals): 33 bursts/min

NS(=O)(=O)c1cc(C(=O)O)c(NCc2ccco2)cc1Cl [furosemide]
field response to the test pulse [2, 3]: hyperexcitable field response (multiple population spikes) | stimulation-evoked optical changes [2, 3]: blocked | electrical afterdischarge activity ([2]; 20 minutes of perfusion with medium containing 2.5 mM furosemide, 2 s stimulation at 60 Hz): blocked | response pattern after washout ([2]; following 45 minutes of perfusion with normal bathing medium): restoration of the initial response pattern | epileptiform activity during electrical stimulation [2, 4]: blocks | intrinsic optical signal during electrical stimulation [2, 4]: blocks
